How the values were obtained:
[1] = system: HCT-116; experiment: Cytotoxicity against human HCT116 cells assessed as cell viability after 48 hrs by MTT assay; assay type: functional, cell-based; conditions: HCT-116, 48 h
[2] = Retention time of the compound by HPLC method; assay type: physicochemical
[3] = Cytotoxicity against human DLD1 cells assessed as cell viability after 48 hrs by MTT assay; assay type: functional, cell-based; conditions: DLD-1, 48 h
[4] = Cytotoxicity against human HCT8 cells assessed as cell viability after 48 hrs by MTT assay; assay type: functional, cell-based; conditions: HCT-8, 48 h

SMILES: COC(=O)CC[C@@H](C)[C@H]1CC[C@H]2[C@@H]3CC[C@@H]4C[C@H](OC(=O)C[n+]5ccc(N(C)C)cc5)CC[C@]4(C)[C@H]3CC[C@]12C.[Cl-]
- IC50 [1]: 13.2 µM
- Retention_time [2]: 7.9 min
- IC50 [3]: 17 µM
- IC50 [4]: 59.1 µM

SMILES: COC(=O)CC[C@@H](C)[C@H]1CC[C@H]2[C@@H]3CC[C@@H]4C[C@H](OC(=O)CN5CCOCC5)CC[C@]4(C)[C@H]3CC[C@]12C.Cl
- IC50 [1]: 89 µM
- Retention_time [2]: 24.17 min
- IC50 [3]: 176 µM
- IC50 [4]: 121 µM

SMILES: COC(=O)CC[C@@H](C)[C@H]1CC[C@H]2[C@@H]3CC[C@@H]4C[C@H](OC(=O)CN)CC[C@]4(C)[C@H]3CC[C@]12C
- IC50 [1]: 36.7 µM
- IC50 [3]: 29.4 µM
- IC50 [4]: 30.7 µM

SMILES: COC(=O)CC[C@@H](C)[C@H]1CC[C@H]2[C@@H]3CC[C@@H]4C[C@H](OC(=O)CN5CCNCC5)CC[C@]4(C)[C@H]3CC[C@]12C
- IC50 [1]: 102 µM
- IC50 [3]: 118 µM
- IC50 [4]: 115 µM

SMILES: COC(=O)CC[C@@H](C)[C@H]1CC[C@H]2[C@@H]3CC[C@@H]4C[C@H](OC(=O)C[N+](C)(C)C)CC[C@]4(C)[C@H]3CC[C@]12C.[Cl-]
- IC50 [1]: 38.1 µM
- Retention_time [2]: 7.94 min
- IC50 [3]: 53 µM
- IC50 [4]: 37 µM

— ChEMBL document CHEMBL3621166, “Synthesis, Structure-Activity Relationship, and Mechanistic Investigation of Lithocholic Acid Amphiphiles for Colon Cancer Therapy” (Medchemcomm, 2015)
